Assay results from patent US8216614B2 (The Board of Regents of the University of Texas Systems, priority 2005, dated 2012).
Like-named read-outs stand apart in the source and are kept apart here.

Assays:
[1] = cited from earlier work; for bone mineral density: early postmenopausal women, Ruml et al., 1999
[2] = Metabolic study on prevention of kidney stone formation: alkali load, urinary stone risk factors, urinary saturation; type: in vivo, human; details: two-week phase, 24-hour urine; for urinary ammonium / net gastrointestinal absorption of alkali: change from placebo phase; for net gastrointestinal absorption of alkali: postmenopausal women, constant diet
From the text: A total of eighteen postmenopausal women without kidney stones underwent four phases of study chosen in random order while they were kept on a constant diet in a metabolic ward. […] During last two days of each phase, urine was collected in 24-hour pools for biochemistry and stone risk factors.
Provision of alkali load. […] If an alkali load is delivered, the net gastrointestinal absorption of alkali (calculated from urinary electrolytes) increases and urinary ammonium decreases (as a normal response of kidneys to alkali).

[3] = Metabolic study on preventing bone loss: serum calcium, parathyroid hormone, bone turnover markers; type: in vivo, human; details: for decline in markers of bone resorption (urinary hydroxyproline, urinary N-telopeptide, serum type 1 collagen C-telopeptide): change from placebo phase; for serum calcium / serum parathyroid hormone: last two days of two-week phase
Experimental: During the last two days of each two-week phase, serum and 24-hour urine samples were collected for assessment of calcium metabolism, alkali load, and bone turnover markers.
Markers of bone turnover. The effect of treatment on bone resorption (destruction) was evaluated from urinary hydroxyproline, urinary N-telopeptide, and serum type 1 collagen C-telopeptide. These bone-derived substances are called markers of bone resorption, since they are elevated in states of high bone destruction.

[4] = cited from earlier work

Compound | bone mineral density [1] | urinary ammonium [2] | net gastrointestinal absorption of alkali [2] | urinary calcium [2] | urinary citrate [2] | urinary oxalate [2] | urinary pH [2] | urinary saturation of calcium oxalate [2] | urinary citrate ([1]; calcium citrate supplementation, literature) | decline in markers of bone resorption (urinary hydroxyproline, urinary N-telopeptide, serum type 1 collagen C-telopeptide) [3] | serum calcium [3] | serum parathyroid hormone [3] | bone density ([4]; Pak et al., 2001) | calcium loss into urine ([4]; Sakhaee et al., 1991) | urinary citrate ([4]; literature)
O=C([O-])[O-].[Ca+2] [calcium carbonate] | only partially effective |  |  |  |  |  |  |  |  |  |  |  |  |  | 
O=C([O-])CC(O)(CC(=O)[O-])C(=O)[O-].O=C([O-])CC(O)(CC(=O)[O-])C(=O)[O-].[Ca+2].[Ca+2].[Ca+2] [calcium citrate] | prevent, though not increase | slightly but significantly decreased | marginally increased | increased | increased in the same direction | decreased significantly | increased marginally | increased marginally | modestly increases | intermediate | increased slightly | significantly decreased |  |  | 
O=C([O-])CC(O)(CC(=O)[O-])C(=O)[O-].[K+].[K+].[K+] [potassium citrate] |  | reduced | significantly and substantially increased | decreased | increased in the same direction | unaffected | significantly and substantially rose | declined |  | least prominent | did not change | did not change | increase bone density | prevent calcium loss into urine | effective in increasing urinary citrate
